Calls of active or inactive are those of the source.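 How the source made its calls: active means IC50 for lowering Her2 protein in breast cancer cells at or below a set limit; inactive means IC50 above that limit.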
These compounds were tested on SKBr3 Her2 cytoblot, chemiluminescence, 24 h (assay: Her2 protein loss in SKBr3 cells, dose response, mechanism study for Hsp90 inhibitor project, cell-based, cytoblot, chemiluminescence (AID 754)). Details: top dose 10 µM.
`Nc1cc(O)cc2cccnc12` showed an IC50 of less than 0.625 µM.
For `O=[N+]([O-])c1cc(O)cc2cccnc12`, the IC50 was > 10 µM (inactive).
For `CCC(C)NCCNc1cc(OC)cc2cccnc12` (stereo not given), the IC50 was > 10 µM (inactive).
`Nc1ccc(O)c2ncccc12` was tested, and the IC50 was > 10 µM (inactive).
For `CCN(CC)CCCNc1cc(OC)c(Nc2ccccc2)c2cccnc12`, the IC50 was > 10 µM (inactive).
`CC(CCN(C)C)Nc1cc(O)cc2cccnc12` (stereo not given) was tested, and the IC50 was > 10 µM (inactive).
`Nc1cc2ccccc2c(O)c1O` was tested, and the IC50 was > 10 µM (inactive).
`CC(C)NCCCC(C)Nc1cc(O)cc2cccnc12` (stereo not given) was tested, and the IC50 was > 10 µM (inactive).
`Nc1cc(N)c2cccnc2c1O` was tested, and the IC50 was > 10 µM (inactive).
With `CC(C)NCCCCCNc1cc(O)cc2cccnc12` the IC50 was > 10 µM (inactive).
For `NCCCCCNc1cc(O)cc2cccnc12`, the IC50 was > 10 µM (inactive).
With `CCN(CC)CCCC(C)Nc1cc(O)cc2cccnc12` (stereo not given) the IC50 was > 10 µM (inactive).
In the case of `Nc1cc2c(c(O)c1O)C(=O)c1ccccc1C2=O`, the IC50 is reported as > 10 µM (inactive).

Same assay, conditions: top dose 30 µM
With `COc1cccc2c1C(=O)c1c(O)c3c(c(O)c1C2=O)C[C@@](O)(C(=O)CO)C[C@@H]3O[C@H]1C[C@H](N)[C@H](O)[C@H](C)O1` the IC50 was > 30 µM (inactive).
`C[C@H]1CCC[C@H](O)CCCCCc2cc(O)cc(O)c2C(=O)O1` showed an IC50 of 27.9 µM.
Work on `CCn1nc(-c2cccs2)nc2c(=O)n(C)c(=O)nc1-2` yielded an IC50 of less than 1.88 µM.
In the case of `O=C1c2ccccc2-c2onc3ccc(NCCCn4ccnc4)c1c23`, the IC50 is reported as > 30 µM (inactive).
`CCc1cc(-c2[nH]ncc2-c2ccc3c(c2)OCO3)c(O)cc1O` was tested, and the IC50 was > 30 µM (inactive).
For `Cc1c(-c2nn(C)c(=O)c3ccccc23)oc2ccc(F)cc2c1=O`, the IC50 was > 30 µM (inactive).
For `Oc1ccc(-c2nc(-c3ccc(O)c(O)c3)cs2)cc1`, the IC50 was > 30 µM (inactive).
With `CCn1c(CSc2nnc3ccccn23)nc2cc(C(=O)O)ccc21` the IC50 was > 30 µM (inactive).
`Cn1ncnc2c(=O)n(C)c(=O)nc1-2` gave an IC50 of less than 1.88 µM.
`CCn1nc(-c2ccccc2)nc2c(=O)n(C)c(=O)nc1-2` showed an IC50 of 2.73 µM.
`C[C@H]1CCCC(=O)CCCCCc2cc(O)cc(O)c2C(=O)O1` was tested, and the IC50 was > 30 µM (inactive).
For `COc1cccc2c1C(=O)c1c(O)c3c(c(O)c1C2=O)C[C@@](O)(C(C)=O)C[C@@H]3O[C@H]1C[C@H](N)[C@H](O)[C@H](C)O1`, the IC50 was 29.3 µM.
For `N#Cc1c(N2CCCC2)nc(N)c2c(N)nc(N3CCCC3)cc12`, the IC50 was > 30 µM (inactive).
Compound `CCn1c(CSc2nnc(-c3cccnc3)n2-c2ccccc2C)nc2cc(C(=O)O)ccc21` has an IC50 of 3.14 µM.
For `CC(Cc1ccc(O)c(O)c1)C(C)Cc1ccc(O)c(O)c1` (stereo not given), the IC50 was > 30 µM (inactive).

Same assay, conditions: top dose 50 µM
In the case of `Nc1ccc(Nc2nc3ccccc3s2)c(O)c1`, the IC50 is reported as > 50 µM (inactive).
`COc1cc(NC(C)CCCNC(C)C)c2ncccc2c1OC` (stereo not given) was tested, and the IC50 was > 50 µM (inactive).
`CCN(CC)CCCNc1cc(OC)cc2ccc(OC)nc12` was tested, and the IC50 was > 50 µM (inactive).
With `O=[N+]([O-])c1cc(S(=O)(=O)Nc2ccc(F)c(-c3c(O)ccc4c3OCO4)c2)ccc1Cl` the IC50 was > 50 µM (inactive).
For `COc1cc(NCCCC(C)N)c2nccc(Cl)c2c1` (stereo not given), the IC50 was > 50 µM (inactive).
In the case of `Nc1ccc(O)c2ncccc12`, the IC50 is reported as > 50 µM (inactive).
With `COc1cc(N)c2ncccc2c1` the IC50 was > 50 µM (inactive).
`COc1cc(NCCCN(CC(C)C)CC(C)C)c2ncccc2c1Cl` was tested, and the IC50 was > 50 µM (inactive).
In the case of `COc1cc(NCCCCN)c2ncccc2c1`, the IC50 is reported as > 50 µM (inactive).
For `COc1cc(NC(C)CCCNC(C)C)c2ncccc2c1` (stereo not given), the IC50 was > 50 µM (inactive).
`CCC(CC)NCCCNc1cc(OC)cc2cccnc12` was tested, and the IC50 was > 50 µM (inactive).
For `COc1cc(NS(=O)(=O)c2ccc([N+](=O)[O-])cc2[N+](=O)[O-])c2ncccc2c1`, the IC50 was > 50 µM (inactive).
For `COc1cc(NCCN(CC(C)C)CC(C)C)c2ncccc2c1`, the IC50 was > 50 µM (inactive).
In the case of `CCCC(C)N(CC)CCNc1cc(OC)cc2cccnc12` (stereo not given), the IC50 is reported as > 50 µM (inactive).
`COc1cc(NC(C)CCCN)c2ncccc2c1` (stereo not given) was tested, and the IC50 was > 50 µM (inactive).
For `COc1ccc(Oc2c(OC)cc(NCCCCCNC(C)C)c3ncccc23)cc1`, the IC50 was > 50 µM (inactive).
`Nc1cccc2cc(O)ccc12` was tested, and the IC50 was > 50 µM (inactive).
`Cc1ccc(S(=O)(=O)Nc2ccc(F)c(-c3c(O)ccc4c3OCO4)c2)cc1` was tested, and the IC50 was > 50 µM (inactive).
`COc1cc(NCC(O)CN(CC(C)C)CC(C)C)c2nc(C)ccc2c1` (stereo not given) was tested, and the IC50 was > 50 µM (inactive).
In the case of `N#Cc1cc(S(=O)(=O)Nc2ccc(F)c(-c3c(O)ccc4c3OCO4)c2)ccc1F`, the IC50 is reported as > 50 µM (inactive).
In the case of `CCN(CC)CC(O)c1ccnc2c(O)cccc12` (stereo not given), the IC50 is reported as > 50 µM (inactive).
For `Cc1[nH]c2c(N)cccc2c1C`, the IC50 was > 50 µM (inactive).

Same assay, conditions: top dose 60 µM
In the case of `NCc1cc(S(=O)(=O)Nc2cc(O)cc3cccnc23)ccc1F`, the IC50 is reported as 16.1 µM.
With `COc1ccc2c(c1-c1cc(NS(=O)(=O)c3ccc(C)cc3)ccc1N)OCO2` the IC50 was > 60 µM (inactive).
With `COc1ccc(NS(=O)(=O)c2ccccc2)c(OC)c1` the IC50 was > 60 µM (inactive).
For `O=[N+]([O-])c1ccc(NS(=O)(=O)c2ccccc2)c(O)c1`, the IC50 was > 60 µM (inactive).
In the case of `COc1ccc(S(=O)(=O)Nc2ccc(O)c(-c3ccccc3O)c2)cc1OC`, the IC50 is reported as > 60 µM (inactive).
For `N#Cc1cc(S(=O)(=O)Nc2cc(O)cc3cccnc23)ccc1F`, the IC50 was 33.8 µM (inactive).
`CCOc1ccc2ccccc2c1-c1cc(NS(=O)(=O)c2cc(Cl)ccc2Cl)ccc1NC(=O)OC(C)(C)C` was tested, and the IC50 was > 60 µM (inactive).
With `Nc1cccc(S(=O)(=O)Nc2ccc(O)c(-c3ccccc3O)c2)c1` the IC50 was > 60 µM (inactive).
For `CCOc1ccc2ccccc2c1-c1cc(NS(=O)(=O)c2ccc(OC)c(OC)c2)ccc1N`, the IC50 was > 60 µM (inactive).
With `CCOc1ccc2ccccc2c1-c1cc(NS(=O)(=O)c2cc(Cl)ccc2Cl)ccc1N` the IC50 was > 60 µM (inactive).
With `COc1cc(C2CC(c3ccccc3O)=NN2)ccc1O` (stereo not given) the IC50 was 51 µM (inactive).
With `O=S(=O)(Nc1cc(O)cc2cccnc12)c1ccc(F)cc1` the IC50 was > 60 µM (inactive).
For `O=S(=O)(Nc1ccc(O)c(-c2ccccc2O)c1)c1cc(Cl)ccc1Cl`, the IC50 was > 60 µM (inactive).
For `Nc1ccc(NS(=O)(=O)c2ccccc2N)cc1-c1ccccc1O`, the IC50 was > 60 µM (inactive).
For `Nc1cccc(S(=O)(=O)Nc2ccc(N)c(-c3ccccc3O)c2)c1`, the IC50 was > 60 µM (inactive).
For `COc1ccc2c(c1-c1cc(NS(=O)(=O)c3cccc([N+](=O)[O-])c3)ccc1N)OCO2`, the IC50 was > 60 µM (inactive).
In the case of `Nc1ccc(NS(=O)(=O)c2ccccc2[N+](=O)[O-])cc1-c1ccccc1O`, the IC50 is reported as > 60 µM (inactive).
In the case of `Nc1ccc(NS(=O)(=O)c2cc(Cl)ccc2Cl)cc1-c1ccccc1O`, the IC50 is reported as > 60 µM (inactive).
In the case of `COc1ccc2c(c1-c1cc(NS(=O)(=O)c3cccc(N)c3)ccc1N)OCO2`, the IC50 is reported as > 60 µM (inactive).
`O=S(=O)(Nc1ccc(Cl)cc1O)c1ccccc1` was tested, and the IC50 was > 60 µM (inactive).
`COc1ccc(C2CC(c3ccccc3O)=NN2)cc1OC` (stereo not given) was tested, and the IC50 was 52.3 µM (inactive).
For `COc1ccc2c(c1-c1cc(NS(=O)(=O)c3cc(Cl)ccc3Cl)ccc1N)OCO2`, the IC50 was > 60 µM (inactive).
In the case of `CCOc1ccc2ccccc2c1-c1cc(NS(=O)(=O)c2ccc(C)cc2)ccc1N`, the IC50 is reported as > 60 µM (inactive).
`O=[N+]([O-])c1cccc(S(=O)(=O)Nc2ccc(O)c(-c3ccccc3O)c2)c1` was tested, and the IC50 was > 60 µM (inactive).
`Cc1ccc(S(=O)(=O)Nc2ccc(N)c(-c3ccccc3O)c2)cc1` was tested, and the IC50 was > 60 µM (inactive).
With `Nc1ccc(NS(=O)(=O)c2ccccc2)c(O)c1` the IC50 was > 60 µM (inactive).
`Cc1ccc(S(=O)(=O)Nc2ccc(O)c(-c3ccccc3O)c2)cc1` was tested, and the IC50 was > 60 µM (inactive).
With `COc1ccc(S(=O)(=O)Nc2ccc(N)c(-c3ccccc3O)c2)cc1OC` the IC50 was > 60 µM (inactive).
For `Nc1ccc(NS(=O)(=O)c2cccc([N+](=O)[O-])c2)cc1-c1ccccc1O`, the IC50 was > 60 µM (inactive).
For `CC(C)(C)OC(=O)Nc1cccc(NS(=O)(=O)c2cc(Cl)ccc2Cl)c1-c1ccccc1O`, the IC50 was 48.2 µM (inactive).

Source: PubChem BioAssay AID754 (Emory University Molecular Libraries Screening Center, 2007)
